Laboratory results published in PMC5727842, “Antioxidant and Antidiabetic Effects of Flavonoids: A Structure-Activity Relationship Based Study” (BioMed Research International, 2017).

Legend:
[1] = Rapid screening of radical scavenging activity by dot blot assay (DPPH staining); conditions: silica sheet stained with DPPH in MeOH, dilutions from 1000 μg/mL
Procedure: An aliquot (20 μL) of each dilution of each group was carefully loaded on a […] TLC plate and allowed to dry for 10 min. Drops of each sample were loaded in the order of decreased concentration along the 16 columns. The staining of the silica plate was based on the procedure of Soler-Rivas et al.. […] The intensity of the yellow color depends upon the amount and nature of radical scavenger present in the flavonoids.

[2] = DPPH radical scavenging assay; conditions: 30 min, 517 nm, mean ± SEM (n = 3)
Procedure: Each sample's stock solution was diluted to final concentrations of 1000–0.4889 μg/mL in MeOH. A total of 1 mL of a 0.3 mM DPPH methanolic solution was added to 2.5 mL of sample solution of different concentrations and allowed to react at room temperature. After 30 min, the absorbance (Abs) values were measured at 517 nm with a microplate reader (Tecan NanoQuant Infinite M200, Switzerland) and converted into the percentage antioxidant activity using the following equation described previously: (1) % antioxidant activity=100−Abssample−Abssample blank/Abscontrol−Abscontrol blank×100. MeOH + compound solution was used as a blank, while DPPH solution plus MeOH was used as a negative control. The positive controls were DPPH solution plus 1 mM ascorbic acid. The IC50 values were calculated by linear regression of plots. The average percent of scavenging capacity was taken from three replicates.

[3] = ABTS+ radical scavenging assay; conditions: 734 nm, mean ± SEM (n = 3)
Procedure: An improved ABTS^+ radical decolorization assay was carried out involving direct production of the blue/green ABTS^+ chromophore through the reaction between ABTS and potassium persulfate. Addition of antioxidant to the preformed radical cation reduces it to ABTS to an extent on a time scale depending on the antioxidant activity, the concentration of the antioxidant, and the duration of the reaction. 1 ml ABTS was dissolved in water to make 7 mM concentration of the resultant solution. […] The resultant reaction mixture was allowed to stand in the dark at room temperature for 12–16 h before being used. The ABTS^+ radical solution was diluted with MeOH to an absorbance of 0.7 (±0.02) at 734 nm. Then, 100 μl of sample at various concentrations (1000–0.4889 μg/mL) was mixed with 100 μL of diluted ABTS^+ radical. Each concentration was analyzed in triplicate and the percentage decrease of absorbance at 734 nm with a microplate reader (Tecan NanoQuant Infinite M200, Switzerland) was calculated for each point and the antioxidant capacity of the tested compounds was expressed as percent inhibition (%). The radical scavenging activity of the compounds was measured according to the following equation [29]:(2) % inhibition=Acontrol−Asample/Acontrol×100. IC50 values were calculated by linear regression of plots, and the average percent of scavenging capacity was taken from three replicates. Trolox was used as a standard in comparison for the determination of the antioxidant activity of the flavonoids.

DPP-4 = biological target: T1, DPP-4 (Homo sapiens, UniProt P27487); assay: Dipeptidyl peptidase IV (DPP-4) inhibitory assay; type: biochemical; conditions: Table 3; mean ± SEM (n = 3); NA: not active
T1 construct: purchased Cayman (Michigan, USA)
T1 sequence (P27487 whole entry): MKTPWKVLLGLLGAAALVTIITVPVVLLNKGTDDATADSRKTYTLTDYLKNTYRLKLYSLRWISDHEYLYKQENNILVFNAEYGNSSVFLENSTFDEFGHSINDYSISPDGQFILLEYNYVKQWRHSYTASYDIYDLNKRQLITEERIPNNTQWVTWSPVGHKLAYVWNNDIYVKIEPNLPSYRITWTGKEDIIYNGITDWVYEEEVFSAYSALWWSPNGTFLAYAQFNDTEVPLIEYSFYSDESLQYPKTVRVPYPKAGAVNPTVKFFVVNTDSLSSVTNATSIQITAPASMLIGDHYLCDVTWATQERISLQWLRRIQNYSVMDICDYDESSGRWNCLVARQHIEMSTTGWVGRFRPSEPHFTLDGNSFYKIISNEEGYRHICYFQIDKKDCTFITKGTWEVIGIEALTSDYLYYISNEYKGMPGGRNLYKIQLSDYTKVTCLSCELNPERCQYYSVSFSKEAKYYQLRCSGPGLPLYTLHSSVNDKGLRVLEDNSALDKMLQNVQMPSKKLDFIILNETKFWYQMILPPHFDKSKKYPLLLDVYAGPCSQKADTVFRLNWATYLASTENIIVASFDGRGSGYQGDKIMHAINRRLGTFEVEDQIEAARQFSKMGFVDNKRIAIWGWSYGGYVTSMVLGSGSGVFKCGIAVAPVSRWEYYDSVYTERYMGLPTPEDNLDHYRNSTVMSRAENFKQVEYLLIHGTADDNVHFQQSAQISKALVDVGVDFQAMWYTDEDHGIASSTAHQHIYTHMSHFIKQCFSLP
Procedure: Dipeptidyl peptidase (IV) inhibitors work by inhibiting the action of this enzyme, thereby prolonging the activity of incretins that play an important role in insulin secretion and blood glucose control regulation. DPP-4 inhibitory assay was performed as per the standard method (Cayman, USA). Firstly, 1 mg of sample was dissolved in 10% of DMSO and MeOH as the stock solution. For initial activity (100%), 10 μL of MeOH, 30 μL of diluted assay buffer, and 10 μL of diluted DPP-4 (Cayman, USA) were added to 96-well microplate. […] For background well, 10 μL of MeOH and 40 μL of diluted assay buffer were added. Then, 10 μL of prepared sample and 30 μL of diluted assay buffer were added with 10 μL of diluted DPP-4. After that, 50 μL of substrate solution was added to all wells to initiate the reaction and further incubated in the dark at 37°C for 30 min. Finally, plate was read at 360 nm of excitation wavelength and 465 nm of emission wavelength using fluorescence microplate reader (Perkin Elmer, Germany). All determinations were done in triplicate and half maximal concentration (IC50) values were calculated from the percentage of inhibition based on the linear regression analysis. The equation given below was applied to calculate the inhibitory activity (%):(5) Inhibitory activity%=Initial Activity−Sample/Initial Activity×100%.
For DPP-4 inhibitory assay, the reaction is based on the cleavage of the peptide bond by DPP releasing the free Gly-Pro-aminomethylcoumarin group, a fluorogenic substrate resulting in fluorescence excitation and emission.

[4] = biological target: T2, xanthine oxidase from buttermilk (Bos taurus, UniProt P80457); assay: Xanthine oxidase inhibitory assay (XOI); type: biochemical; conditions: for xanthine oxidase inhibitory effect (in words): discussion; for IC50: xanthine oxidase inhibition, 295 nm, mean ± SEM (n = 3), NA: not active
T2 construct: 0.3 U/mL enzymes (xanthine oxidase from buttermilk); purchased Sigma-Aldrich (Singapore); host or cells: buttermilk (natural source)
T2 sequence (P80457 whole entry): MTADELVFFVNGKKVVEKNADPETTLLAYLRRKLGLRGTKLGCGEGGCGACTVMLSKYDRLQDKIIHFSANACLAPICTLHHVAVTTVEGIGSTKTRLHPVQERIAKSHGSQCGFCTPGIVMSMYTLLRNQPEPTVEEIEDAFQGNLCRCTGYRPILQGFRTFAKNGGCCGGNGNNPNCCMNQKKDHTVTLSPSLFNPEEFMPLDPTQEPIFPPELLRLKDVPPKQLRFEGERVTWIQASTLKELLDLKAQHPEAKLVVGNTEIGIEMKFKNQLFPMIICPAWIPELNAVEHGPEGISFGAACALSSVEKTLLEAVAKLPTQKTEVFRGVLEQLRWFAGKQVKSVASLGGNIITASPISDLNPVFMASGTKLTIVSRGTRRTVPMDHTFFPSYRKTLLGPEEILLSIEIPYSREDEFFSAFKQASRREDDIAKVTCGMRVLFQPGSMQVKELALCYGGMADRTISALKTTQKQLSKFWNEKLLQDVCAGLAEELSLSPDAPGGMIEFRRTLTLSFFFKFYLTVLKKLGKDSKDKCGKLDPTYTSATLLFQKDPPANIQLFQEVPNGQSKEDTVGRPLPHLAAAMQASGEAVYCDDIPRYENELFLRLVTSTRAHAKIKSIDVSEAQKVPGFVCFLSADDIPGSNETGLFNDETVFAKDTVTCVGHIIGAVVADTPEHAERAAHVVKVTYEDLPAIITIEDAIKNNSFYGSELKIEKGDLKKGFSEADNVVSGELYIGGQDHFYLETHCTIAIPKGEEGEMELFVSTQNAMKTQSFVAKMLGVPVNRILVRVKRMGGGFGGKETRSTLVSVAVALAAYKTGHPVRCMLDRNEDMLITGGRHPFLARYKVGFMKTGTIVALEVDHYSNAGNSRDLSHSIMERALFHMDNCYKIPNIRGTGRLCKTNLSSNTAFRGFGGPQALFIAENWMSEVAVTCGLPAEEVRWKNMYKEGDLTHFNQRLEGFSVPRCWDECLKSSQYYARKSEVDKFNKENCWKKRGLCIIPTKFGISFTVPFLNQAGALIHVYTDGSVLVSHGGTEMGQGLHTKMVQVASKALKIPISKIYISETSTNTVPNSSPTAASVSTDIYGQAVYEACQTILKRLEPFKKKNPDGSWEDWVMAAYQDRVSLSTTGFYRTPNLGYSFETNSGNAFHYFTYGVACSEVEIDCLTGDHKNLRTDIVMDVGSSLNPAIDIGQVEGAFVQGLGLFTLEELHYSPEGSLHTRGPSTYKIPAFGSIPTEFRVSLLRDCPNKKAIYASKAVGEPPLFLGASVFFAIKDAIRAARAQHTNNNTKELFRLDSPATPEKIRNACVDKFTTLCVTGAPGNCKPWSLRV
Procedure: XO catalyzes the oxidation of hypoxanthine to xanthine and subsequently to uric acid. The inhibition of XO reduces both vascular oxidative stress and circulating levels of uric acid. This assay is based on the fact that the superoxide anions are generated by the xanthine. The xanthine oxidase inhibitory activity was measured spectrophotometrically (Tecan NanoQuant Infinite M200, Switzerland) at 295 nm under aerobic condition with slight modification. The reaction mixture contained 50 mM phosphate buffer (pH 7.5), 0.15 mM xanthine (substrate), and 0.3 U/mL enzymes (xanthine oxidase from buttermilk). Samples were prepared by dissolving 1 mg in 5% DMSO in MeOH which gives sample concentration of 144.0 μg/mL in assay. […] The absorption increment at 295 nm indicates the formation of […] of uric acid/min at 25°C. […] All determination was done in triplicate and half maximal concentration (IC50) values were calculated from the percentage of inhibition. XO inhibition activity was expressed as the percentage inhibition of XO as follows:(3) % of inhibition=AbsA−B−C−D/AbsA−B×100, where A is the negative control with B as the blank of A which is without the enzyme and the sample while C is the activity of the sample with enzyme with D as the blank of the sample without enzyme.

Row | SMILES | radical scavenging activity by dot blot (intensity of yellow spots) [1] | IC50 DPPH [2] | IC50 ABTS+ [3] | IC50 (DPP-4) [µM] | xanthine oxidase inhibitory effect (in words) [4] | IC50 [4] [µM]
1 | O=c1cc(-c2ccc(O)c(O)c2)oc2c(O)c(O)cc(O)c12 [Hypolaetin, 3′,4′,5,7,8-Pentahydroxyflavone] | strong radical scavenging activity | 3.69 ± 0.11^Ha µg/ml | 0.80 ± 0.03^FG µg/ml | 115 | low xanthine oxidase inhibitory activity | > 331
2 | COc1cc(O)c2c(=O)cc(-c3ccccc3)oc2c1 [Techtochrysin, 5-Hydroxy-7-methoxyflavone] | intermediate radical scavenging activity | >100^B µg/ml | 45.59 ± 4.75^E µg/ml | > 373 | low xanthine oxidase inhibitory activity | > 373
